In one experiment the test system is Panx-1. The following applies: cited from earlier work; for IC50: Panx-1 blockers, reference compounds.
Experiment [1] addresses T1, Panx-1 channels (Mus musculus, UniProt Q9JIP4).
T1 construct: expressed in transfected cells; host or cells: Xenopus laevis oocytes injected with in vitro-transcribed mRNA
Kind of experiment: Voltage clamp on Xenopus laevis oocytes expressing Panx-1 channels. The class given is cell-based. On the procedure: All new products were screened as Panx-1 blockers at the dose of 50 µM using the Voltage Clamp technique on Xenopus Laevis oocytes expressing Panx-1 channels. The membrane potential of the cells was held at -60 mV and voltage steps to +60 mV were applied to induce membrane currents. To verify that Panx-1 channels carried the currents, in each experiment 100 µM carbenoxolone (CBX) was applied. At this concentration, CBX is known to yield 100% inhibition of Panx-1 activity. If present, leak currents resistant to CBX were subtracted from the total current to assess % inhibition mediated by the tested compounds. Table 1 and Table 2 report the electrophysiological results of naphthalene-2-sulphonic acid derivatives bearing at position 5 an amino- (3a–e, 4 and 5) or amide group (7a–g, 8 and 9) and of compound 13.
Oocytes of Xenopus laevis are prepared as previously described in [39] where the oocytes are isolated from surgically removed ovary segments incubated in an Oocyte Ringe solution Ca2-free (OR2: in mM: 82.5 NaCl, 2.5 KCl, 1.0 MgCl2, […], 1.0 Na2HPO4 e 5.0 HEPES, pH 7.5) with 2 mg/mL of collagenase and antibiotics (10,000 U/mL penicillin and 10 mg/mL of streptomycin) stirred at room temperature for 3 h. After being washed with OR2, oocytes free of follicular cells and that have a uniform pigmentation are chosen and stored in OR2 for 18 °C.
Mouse pannexin1, in pCS2, was linearised with NotI. In vitro transcription was performed with the polymerase SP6, using the Message Machine kit (Ambion). mRNA was quantified by absorbance (260 nm), and the proportion of full-length transcripts was checked by agarose gel electrophoresis. In vitro-transcribed mRNA (~20 nL) was injected into Xenopus laevis oocytes.
Whole-cell membrane currents of oocytes were measured using a two-electrode voltage clamp (Gene Clamp 500B, Axon Instruments/Molecular Devices Sunnyvale, Union City, CA, USA). Glass pipettes were pulled using a P-97 Flaming/Brown type puller (Sutter, Novato, CA, USA). The recording chamber was perfused continuously with frog Ringer (OR) solution (in mM: 82.5 NaCl, 2.5 KCl, 1 CaCl2, 1 MgCl2, 1 Na2HPO4, and 5 HEPES, pH 7.5).
Membrane conductance was determined using voltage pulses, and the pulse-induced current amplitudes were divided by the amplitudes of the voltage steps. For calculation of % inhibition, leak currents were subtracted. Typically, leak currents after the interventions were smaller than at the beginning of the experiment and this smaller value was used for the subtraction to avoid overestimation of the inhibitory effect. For an independent measure of the leak current, oocytes at the end of the experiment were exposed to 100 µM carbenoxolone, which is known to close Panx1 channels 100%. Oocytes expressing Panx1 were held at −60 mV, and pulses to +60 mV were applied to transiently open the channels by means of the voltage gate. Pulses 5 s in duration were applied at 0.1 Hz for current and conductance measurements.

Experiment [2] concerns the target T1, Panx-1 channels. The experiment is described as above. The class given is cell-based. The following applies: Figure 4 dose-response plot; concentration not printed in the legend.

Each structure is given as a SMILES string.

T1 sequence (Q9JIP4 whole entry): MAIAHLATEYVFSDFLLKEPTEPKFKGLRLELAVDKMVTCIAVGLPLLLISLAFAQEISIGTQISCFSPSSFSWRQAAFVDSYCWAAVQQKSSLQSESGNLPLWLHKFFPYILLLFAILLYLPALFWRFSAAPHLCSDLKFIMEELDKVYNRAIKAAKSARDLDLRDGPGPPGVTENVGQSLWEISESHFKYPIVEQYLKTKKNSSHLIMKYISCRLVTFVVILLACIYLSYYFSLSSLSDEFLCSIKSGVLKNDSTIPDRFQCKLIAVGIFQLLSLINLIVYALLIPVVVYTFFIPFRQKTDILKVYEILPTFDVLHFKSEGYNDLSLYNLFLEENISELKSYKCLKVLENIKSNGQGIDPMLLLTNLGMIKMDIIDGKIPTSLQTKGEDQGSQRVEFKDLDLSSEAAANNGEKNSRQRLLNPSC

A word on the IC50: it is the concentration that gives 50% inhibition. As a reminder, the inhibition is how much of the control response was suppressed. As to `CCCN(CCC)S(=O)(=O)c1ccc(C(=O)O)cc1` [Probenecid, reference compound], the concentration for half-maximal inhibition (IC50) in the experiment on Panx-1 was 150 µM. Moreover, the inhibition at 50 µM on Panx-1 channels [1] (50 µM, voltage clamp, Xenopus laevis oocytes expressing Panx-1 channels, read-out: I (%) inhibition of Panx-1 currents) was found to be 29%. In addition, the “classification as active or inactive Panx-1 blocker” value at Panx-1 channels [1] (grouping chosen for the virtual screening) was “inactive”.

In the case of `CCN(Cc1cccc(S(=O)(=O)O)c1)c1ccc(C(=C2C=CC(=[N+](CC)Cc3cccc(S(=O)(=O)O)c3)C=C2)c2ccccc2S(=O)(=O)[O-])cc1` [Brilliant Blue FCF], the IC50 in the experiment with Panx-1 was 0.27 µM.

With `CC1(C)[C@@H](OC(=O)CCC(=O)O)CC[C@]2(C)[C@H]3C(=O)C=C4[C@@H]5C[C@@](C)(C(=O)O)CC[C@]5(C)CC[C@@]4(C)[C@]3(C)CC[C@@H]12` [Carbenoxolone, carbenoxolone], the “inhibition of Panx-1 activity” value in the experiment with Panx-1 (100 µM carbenoxolone) is listed as 100%. In addition, in the experiment with Panx-1, the IC50 is 10 µM. Moreover, the “% inhibition of Panx1-mediated membrane currents” value on Panx-1 channels [2] is listed as 100%.

(Values after PMC9103715, “New Panx-1 Blockers: Synthesis, Biological Evaluation and Molecular Dynamic Studies” (International Journal of Molecular Sciences, 2022).)
